The source of these data is patent US20110111014A1, “METHODS AND COMPOSITIONS FOR TREATMENT OF NEUROLOGICAL DISORDERS” (Parkinson's Institute, priority 2007, published 2011).

Structures can show the parent of a compound that is named as a salt.

Data set [1] deals with T1, α-synuclein (Homo sapiens, UniProt P37840).
T1 construct: made in house; host or cells: E. coli BL21(DE3), plasmid pRK172/α-synuclein WT
The data set is described as follows: Disaggregation Thioflavin T assay. The data set is classed as biochemical. The conditions noted are these: polyphenol inhibitors.

In data set [2] the target is T1, α-synuclein. The data set is described as follows: Aggregation inhibition Thioflavin T assay (primary assay). Format: biochemical. The conditions noted are these: for Thioflavin T signal / fibril formation by Thioflavin T fluorescence: compared with control samples (FIGS. 1-13); for lagtime for fibrillation: NINDS Collection 2 Library.
Data set [3] concerns the target T1, α-synuclein. Description: Electron microscopy of fibrils (secondary assay). The conditions noted are these: figure legends. The data set is classed as biochemical.
For data set [4], the target named is T1, α-synuclein. Description: Centrifugation to separate soluble and insoluble protein, SDS-PAGE. The data set is classed as biochemical. The conditions noted are these: for protein soluble after incubation, SDS PAGE of supernatant vs. total mixture: figure legends.
In data set [5] the target is T1, α-synuclein. Description: SEC HPLC, oligomer formation. Format: biochemical. Particulars: none with control.
In data set [6] the target is T1, α-synuclein. Description: Atomic force microscopy of fibrils. Format: biochemical. The conditions noted are these: 45 hours post treatment, compared to control. As to the method: Atomic force microscopy (AFM): AFM images were collected with a PicoScan LE system (Molecular Imaging, Phoenix, AZ) equipped with Acoustic AC mode (Tapping mode) for ex-situ experiment. Triangular cantilevers with 160 kHz resonance frequency and 2 N/m spring constant, a V-shaped cantilever NSC16/AIBS (MikroMasch), were used in tapping mode imaging. The imaging was carried out at a scan rate of 1 line/s with 512 data points per line, at a drive current of 10±4 Å. Aliquots of 10 ul of sample were placed on a freshly cleaved mica substrate. After incubation for at least 60 min, the substrate was rinsed with water several times to remove salt and loosely bound protein and dried with high-purity nitrogen. Kinetics of α-synuclein fibrillation can be visualized with the use of this technique, as exemplified in FIG. 46.

For data set [7] the following is noted: in vivo; cited from earlier work.
The conditions of data set [8]: cited from earlier work.

For the compound `O=c1cc(-c2cccc(O)c2O)oc2ccccc12` [2′,3′-dihydroxyflavone], the “disaggregation of α-synuclein aggregates” value on α-synuclein [1] is “best disaggregators”.

On to `O=c1c(O)c(-c2ccc(O)c(O)c2)oc2c(O)c(O)cc(O)c12` [3,5,7,8,3′,4′-hexahydroxyflavone], for which the “disaggregation of α-synuclein aggregates” value at α-synuclein [1] was “best disaggregators”.

As for `O=c1cc(-c2ccc(O)c(O)c2)oc2ccccc12` [3′,4′-dihydroxyflavone], the “disaggregation of α-synuclein aggregates” value at α-synuclein [1] was “best disaggregators”.

As for `O=c1c(O)c(-c2ccc(O)c(O)c2)oc2ccccc12` [3′,4′-dihydroxyflavonol], the “disaggregation of α-synuclein aggregates” value at α-synuclein [1] is recorded as “best disaggregators”.

Take `O=c1cc(-c2cc(O)c(O)c(O)c2)oc2cc(O)cc(O)c12` [5,7,3′,4′,5′-pentahydroxyflavone]: the “disaggregation of α-synuclein aggregates” value on α-synuclein [1] was “best disaggregators”.

Take `O=c1cc(-c2cccc(O)c2O)oc2ccc(O)cc12` [6,2′,3′-trihydroxyflavone]: the “disaggregation of α-synuclein aggregates” value on α-synuclein [1] is listed as “best disaggregators”.

Consider `O=c1cc(-c2cc(O)c(O)c(O)c2)oc2cc(O)ccc12` [7,3′,4′,5′-tetrahydroxyflavone], for which the “disaggregation of α-synuclein aggregates” value on α-synuclein [1] is recorded as “best disaggregators”.

For the compound `O=c1c(-c2ccc(O)c(O)c2)coc2cc(O)ccc12` [7,3′,4′-trihydroxyisoflavone], the “disaggregation of α-synuclein aggregates” value at α-synuclein [1] is reported as “best disaggregators”.

Consider `CN1CCc2cccc3c2[C@H]1Cc1ccc(O)c(O)c1-3` [apomorphine, 6αβ-Aporphine-10,11-diol hydrochloride hemihydrate], for which the “Thioflavin T signal / fibril formation by Thioflavin T fluorescence” value (from here on “Thioflavin T signal / fibril formation”) at α-synuclein [2] is “very low”. On α-synuclein [3], the “fibril formation by EM” value is “negligible fibril formation”. Besides, the “protein soluble after incubation, SDS PAGE of supernatant vs. total mixture” value on α-synuclein [4] is reported as “most protein still soluble”. Further, at α-synuclein [5], the “oligomer formation by SEC HPLC” value is “oligomer formation”.

For `c1ccc(N=Nc2ccccc2)cc1` [azobenzene], at α-synuclein [2], the lagtime for fibrillation result is recorded as “Significant increases in”.

As to `O=c1cc(-c2ccccc2)oc2cc(O)c(O)c(O)c12` [baicalein], at α-synuclein [4], the “protein soluble after incubation, SDS PAGE of supernatant vs. total mixture” value is recorded as “most protein still soluble”. Moreover, at α-synuclein [6], the “fibrils with atomic force microscopy” value is recorded as “very few fibrils”.

Regarding `C[C@@](Cc1ccc(O)c(O)c1)(NN)C(=O)O` [carbidopa], the “Thioflavin T signal / fibril formation” value on α-synuclein [2] is listed as “negligible fibril formation”. On α-synuclein [3], the “fibril formation by EM” value is recorded as “negligible fibril formation”. The “protein soluble after incubation, SDS PAGE of supernatant vs. total mixture” value at α-synuclein [4] is on record as “most protein still soluble”.

As for `Cn1nnnc1SCC1=C(C(=O)O)N2C(=O)[C@@H](NC(=O)[C@H](O)c3ccccc3)[C@H]2SC1` [cefamandole sodium], the lagtime for fibrillation result at α-synuclein [2] is recorded as “Significant increases in”.

For `O=C(Cc1cccs1)N[C@@H]1C(=O)N2C(C(=O)[O-])=C(C[n+]3ccccc3)CS[C@H]12` [cephaloridine], the lagtime for fibrillation result on α-synuclein [2] is on record as “Significant increases in”.

On to `N.N.[Cl][Pt][Cl]` [cisplatin], for which the “Thioflavin T signal / fibril formation” value on α-synuclein [2] is reported as “negligible fibril formation”. For the same compound, on α-synuclein [3], the “fibril formation by EM” value is recorded as “negligible fibril formation”.

Take `CC(CCc1ccc(O)cc1)NCCc1ccc(O)c(O)c1` (stereo not shown) [dobutamine]: the “Thioflavin T signal / fibril formation” value on α-synuclein [2] is on record as “negligible fibril formation”. In addition, the “fibril formation by EM” value on α-synuclein [3] was “negligible fibril formation”. For the same compound, the “protein soluble after incubation, SDS PAGE of supernatant vs. total mixture” value at α-synuclein [4] is on record as “most protein still soluble”.

As for `NCCc1ccc(O)c(O)c1` [dopamine], the “crossing of the blood-brain barrier” value in data set [7] is reported as “does not cross”.

`CCCCOc1ccc(C(=O)CCN2CCCCC2)cc1` [dyclonine hydrochloride]: on α-synuclein [2], the lagtime for fibrillation result is listed as “Significant increases in”.

Take `CCCCCCCC/C=C/CCCCCCCCOP(=O)([O-])OCC[N+](C)(C)C` [elaidyphosphocholine (antineoplastic), elaidylphosphocholine]: at α-synuclein [2], the “Thioflavin T signal / fibril formation” value is given as “negligible fibril formation”. Besides, the “fibril formation by EM” value on α-synuclein [3] is given as “negligible fibril formation”. Further, at α-synuclein [4], the “protein soluble after incubation, SDS PAGE of supernatant vs. total mixture” value is on record as “most protein still soluble”.

`O=C(O[C@@H]1Cc2c(O)cc(O)cc2O[C@@H]1c1cc(O)c(O)c(O)c1)c1cc(O)c(O)c(O)c1` [epigallocatechin gallate]: at α-synuclein [1], the “disaggregation of α-synuclein aggregates” value is reported as “best disaggregators”.

In the case of `O=c1c(O)c(-c2ccc(O)c(O)c2)oc2cc(O)ccc12` [fisetin], the “disaggregation of α-synuclein aggregates” value on α-synuclein [1] was “best disaggregators”.

On to `CC(C)NCC(O)c1ccc(O)c(O)c1` (stereo not shown) [isoproterenol], for which the “Thioflavin T signal / fibril formation” value at α-synuclein [2] was “very low”. In addition, the “fibril formation by EM” value on α-synuclein [3] is “Few fibrils”. Further, the “protein in the supernatant after centrifugation” value at α-synuclein [4] (FIG. 1B, control samples <15%) is above 90%.

For `N[C@@H](Cc1ccc(O)c(O)c1)C(=O)O` [l-dopa, (−)-L-a-amino-b-(3,4-dihydroxybenzene)propanoic acid], the solubility in water entry in data set [8] is “slightly soluble”. In addition, the “crossing of the blood-brain barrier” value in data set [7] is “does cross”.

For the compound `Cc1c(OCC(F)(F)F)ccnc1C[S+]([O-])c1nc2ccccc2[nH]1` (stereo not shown) [lansoprazole], the lagtime for fibrillation result at α-synuclein [2] is on record as “Significant increases in”.

As to `O=c1cc(-c2ccc(O)c(O)c2)oc2cc(O)cc(O)c12` [luteolin], at α-synuclein [1], the “disaggregation of α-synuclein aggregates” value is “best disaggregators”.

As to `CCCCOc1ccc(OCCCN2CCOCC2)cc1` [pramoxine hydrochloride], the lagtime for fibrillation entry at α-synuclein [2] is listed as “Significant increases in”.

Turning to `O=C1c2ccccc2C(=O)c2c(O)c(O)cc(O)c21` [purpurin], the lagtime for fibrillation entry on α-synuclein [2] is “Significant increases in”.

Turning to `Oc1cccc(O)c1O` [pyrogallol], the “disaggregation of α-synuclein aggregates” value on α-synuclein [1] is reported as “best disaggregators”.

Regarding `O=C1c2ccc(O)c(O)c2C(=O)c2c(O)ccc(O)c21` [quinalizarin], at α-synuclein [2], the “Thioflavin T signal / fibril formation” value was “negligible fibril formation”. For the same compound, the “fibril formation by EM” value at α-synuclein [3] was “negligible fibril formation”. On α-synuclein [4], the “protein soluble after incubation, SDS PAGE of supernatant vs. total mixture” value was “most protein still soluble”.

On to `NC(=O)c1ccc[n+]([C@@H]2O[C@H](COP(=O)([O-])OP(=O)(O)OC[C@H]3O[C@@H](n4cnc5c(N)ncnc54)[C@H](OP(=O)(O)O)[C@@H]3O)[C@@H](O)[C@H]2O)c1` [sodium beta-nicotinamide adenine dinucleotide phosphate], for which the lagtime for fibrillation entry on α-synuclein [2] is on record as “Significant increases in”.

As for chlorophyllide Cu complex Na salt, the “Thioflavin T signal / fibril formation” value at α-synuclein [2] is listed as “negligible fibril formation”. Also, the “fibril formation by EM” value at α-synuclein [3] is listed as “negligible fibril formation”. Besides, the “protein soluble after incubation, SDS PAGE of supernatant vs. total mixture” value on α-synuclein [4] is “most protein still soluble”.

For pyrogallin, the “Thioflavin T signal / fibril formation” value on α-synuclein [2] was “negligible fibril formation”. Moreover, the “fibril formation by EM” value at α-synuclein [3] is given as “negligible fibril formation”. Also, the “protein soluble after incubation, SDS PAGE of supernatant vs. total mixture” value on α-synuclein [4] is recorded as “most protein still soluble”.
